Laboratory results published in PubChem BioAssay AID2060603 (Molecular Pharmacology Branch, DTP, NCI, 2025).

Tested on: 422866-222-R5-J1-PDC spheroid viability
Experiment: Anticancer human tumor 422866-222-R5-J1-PDC patient-derived pancreatic adenocarcinoma cell line growth inhibition [CLK]
Details: spheroids with HUVEC and MSC; for IC50: curve of first compound; for viability, T/C: stronger effect = lower value
Summary of the method: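 Multi-cell-type spheroids combined patient-derived tumor cells with HUVEC endothelial cells and human mesenchymal stem cells. Paired agents were dosed in half-log steps down from about clinical Cmax, or from 10 microM where Cmax was unknown.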

[1] = second compound 0.0316 µM, first compound 0.0316 µM
[2] = second compound 0.0316 µM, first compound 0.1 µM
[3] = second compound 0.0316 µM, first compound 0.316 µM
[4] = second compound 0.0316 µM, first compound 1 µM
[5] = second compound 0.0316 µM, first compound 3.16 µM
[6] = second compound 0.0316 µM, first compound 10 µM
[7] = second compound 0.1 µM, first compound 0.0316 µM
[8] = second compound 0.1 µM, first compound 0.1 µM
[9] = second compound 0.1 µM, first compound 0.316 µM
[10] = second compound 0.1 µM, first compound 1 µM
[11] = second compound 0.1 µM, first compound 3.16 µM
[12] = second compound 0.1 µM, first compound 10 µM
[13] = second compound 0.316 µM, first compound 0.0316 µM
[14] = second compound 0.316 µM, first compound 0.1 µM
[15] = second compound 0.316 µM, first compound 0.316 µM
[16] = second compound 0.316 µM, first compound 1 µM
[17] = second compound 0.316 µM, first compound 3.16 µM
[18] = second compound 0.316 µM, first compound 10 µM
[19] = second compound 1 µM, first compound 0.0316 µM
[20] = second compound 1 µM, first compound 0.1 µM
[21] = second compound 1 µM, first compound 0.316 µM
[22] = second compound 1 µM, first compound 1 µM
[23] = second compound 1 µM, first compound 3.16 µM
[24] = second compound 1 µM, first compound 10 µM
[25] = second compound 3.16 µM, first compound 0.0316 µM
[26] = second compound 3.16 µM, first compound 0.1 µM
[27] = second compound 3.16 µM, first compound 0.316 µM
[28] = second compound 3.16 µM, first compound 1 µM
[29] = second compound 3.16 µM, first compound 3.16 µM
[30] = second compound 3.16 µM, first compound 10 µM
[31] = second compound 10 µM, first compound 0.0316 µM
[32] = second compound 10 µM, first compound 0.1 µM
[33] = second compound 10 µM, first compound 0.316 µM
[34] = second compound 10 µM, first compound 1 µM
[35] = second compound 10 µM, first compound 3.16 µM
[36] = second compound 10 µM, first compound 10 µM
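Note: spheroids exposed to agents for seven days before readout.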

CC1(C)CCC(CN2CCN(c3ccc(C(=O)NS(=O)(=O)c4ccc(NCC5CCOCC5)c([N+](=O)[O-])c4)c(Oc4cnc5[nH]ccc5c4)c3)CC2)=C(c2ccc(Cl)cc2)C1 + CNC(=O)c1ccc(Nc2nc(OC3CCCC3)c3c(-c4ccc5nc(C)oc5c4)c[nH]c3n2)c(OC)c1
IC50 (second compound 0.0316 µM): > 10 µM | IC50 (second compound 0.1 µM): > 10 µM | IC50 (second compound 0.316 µM): > 10 µM | IC50 (second compound 1 µM): > 10 µM | IC50 (second compound 3.16 µM): > 10 µM | IC50 (second compound 10 µM): > 10 µM | viability, T/C [1]: 115% | viability, T/C [2]: 87.5% | viability, T/C [3]: 93.9% | viability, T/C [4]: 119% | viability, T/C [5]: 131% | viability, T/C [6]: 93.4% | viability, T/C [7]: 114% | viability, T/C [8]: 90% | viability, T/C [9]: 98.7% | viability, T/C [10]: 100% | viability, T/C [11]: 114% | viability, T/C [12]: 81.3% | viability, T/C [13]: 84.6% | viability, T/C [14]: 71.9% | viability, T/C [15]: 70.1% | viability, T/C [16]: 75.7% | viability, T/C [17]: 86.6% | viability, T/C [18]: 78% | viability, T/C [19]: 75.3% | viability, T/C [20]: 76.4% | viability, T/C [21]: 76% | viability, T/C [22]: 70.7% | viability, T/C [23]: 66% | viability, T/C [24]: 57.1% | viability, T/C [25]: 65.2% | viability, T/C [26]: 76.6% | viability, T/C [27]: 66.4% | viability, T/C [28]: 67.7% | viability, T/C [29]: 76.8% | viability, T/C [30]: 79.5% | viability, T/C [31]: 60.3% | viability, T/C [32]: 62.4% | viability, T/C [33]: 61% | viability, T/C [34]: 56.6% | viability, T/C [35]: 78.1% | viability, T/C [36]: 84.3%

CC1COCCN1c1cc(C2(S(C)(=N)=O)CC2)nc(-c2ccnc3[nH]ccc23)n1 (centres undefined) + CNC(=O)c1ccc(Nc2nc(OC3CCCC3)c3c(-c4ccc5nc(C)oc5c4)c[nH]c3n2)c(OC)c1
IC50 (second compound 0.0316 µM): 7.15 µM | IC50 (second compound 0.1 µM): > 10 µM | IC50 (second compound 0.316 µM): 2.56 µM | IC50 (second compound 1 µM): 1.56 µM | IC50 (second compound 3.16 µM): 0.973 µM | IC50 (second compound 10 µM): 0.63 µM | viability, T/C [1]: 108% | viability, T/C [2]: 137% | viability, T/C [3]: 104% | viability, T/C [4]: 102% | viability, T/C [5]: 59.6% | viability, T/C [6]: 46.2% | viability, T/C [7]: 106% | viability, T/C [8]: 98.4% | viability, T/C [9]: 88% | viability, T/C [10]: 84.6% | viability, T/C [11]: 56.9% | viability, T/C [12]: 60.6% | viability, T/C [13]: 79.8% | viability, T/C [14]: 71.6% | viability, T/C [15]: 69.3% | viability, T/C [16]: 58% | viability, T/C [17]: 43.5% | viability, T/C [18]: 50.5% | viability, T/C [19]: 61.4% | viability, T/C [20]: 66.7% | viability, T/C [21]: 59.3% | viability, T/C [22]: 52.1% | viability, T/C [23]: 43.6% | viability, T/C [24]: 52.5% | viability, T/C [25]: 65.3% | viability, T/C [26]: 65.1% | viability, T/C [27]: 58.3% | viability, T/C [28]: 50% | viability, T/C [29]: 44.8% | viability, T/C [30]: 53.8% | viability, T/C [31]: 64.5% | viability, T/C [32]: 69.2% | viability, T/C [33]: 58.8% | viability, T/C [34]: 42.2% | viability, T/C [35]: 39.8% | viability, T/C [36]: 50.4%
